Source: article PMC12274840 (The Journal of Biological Chemistry, 2025)
Values joined by “and” are separate entries in the source; they are usually repeats but may differ in a detail not shown here. Equal values may be shown once.

Columns and labels:
[1] = molecular target: T1, CTX-M-14 Y105G (Escherichia coli, UniProt Q9L5C7, Y108G); type: biochemical
T1 construct: 29 to 291 of CTX-M-14 (Q9L5C7); His tag with TEV cleavage site (N); made in house; host or cells: E. coli BL21 (DE3) pLysS

[2] = molecular target: T2, TEM-1 Y105G (Escherichia coli, UniProt P62593, Y103G); test: Steady-state kinetics of substrate hydrolysis, TEM-1 Y105G; type: biochemical; details: phosphate buffer pH 6.4, 25 °C
[3] = molecular target: T3, BlaC WT (Mycobacterium tuberculosis, UniProt P9WKD3); type: biochemical
T3 construct: correspond to residue numbers 41-307 of BlaC (Uniprot entry P9WKD3-1); His tag with TEV cleavage site (N); made in house; host or cells: E. coli BL21 (DE3) pLysS
T3 sequence (P9WKD3 41-307): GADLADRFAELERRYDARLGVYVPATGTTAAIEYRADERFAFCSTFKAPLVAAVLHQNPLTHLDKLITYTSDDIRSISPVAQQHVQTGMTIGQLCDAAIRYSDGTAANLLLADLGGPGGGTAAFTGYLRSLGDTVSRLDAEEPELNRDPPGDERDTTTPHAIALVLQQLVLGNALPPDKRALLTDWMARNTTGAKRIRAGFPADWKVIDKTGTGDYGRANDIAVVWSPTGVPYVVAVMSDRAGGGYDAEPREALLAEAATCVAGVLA

[4] = molecular target: T4, CTX-M-14 WT (Escherichia coli, UniProt Q9L5C7); test: biochemical
T4 construct: 29 to 291 of CTX-M-14 (Q9L5C7); His tag with TEV cleavage site (N); made in house; host or cells: E. coli BL21 (DE3) pLysS

[5] = molecular target: T1, CTX-M-14 Y105G; test: biochemical
[6] = molecular target: T2, TEM-1 Y105G; test: In vitro inhibition of nitrocefin hydrolysis and simulation of inhibition curves, TEM-1 Y105G; type: biochemical
[7] = molecular target: T5, TEM-1 WT (Escherichia coli, UniProt P62593); details: phosphate buffer pH 6.4, 25 °C
[8] = molecular target: T3, BlaC WT; details: pH 6.4, cited from earlier work
[9] = molecular target: T5, TEM-1 WT; type: biochemical; parameters: 24 to 286 of TEM-1 (P62593); His tag with TEV cleavage site (N); made in house; host or cells: E. coli BL21 (DE3) pLysS
[10] = nitrocefin parameter (Eq 7) in simulation of avibactam inhibition curves, CTX-M-14 Y105G
[11] = nitrocefin parameter (Eq 7) in simulation of avibactam inhibition curves
[12] = nitrocefin parameter (Eq 7) in simulation of clavulanic acid inhibition curves

SMILES: O=C(Cc1cccs1)N[C@@H]1C(=O)N2C(C(=O)O)=C(/C=C/c3ccc([N+](=O)[O-])cc3[N+](=O)[O-])CS[C@H]12 [nitrocefin]
- kcat ([1]; phosphate buffer pH 6.4, 25 °C): 963 ± 117 s⁻¹
- Km ([1]; read-out: KM^app, phosphate buffer pH 6.4, 25 °C): 700 ± 172 µM
- kcat [2]: 453 ± 80 s⁻¹
- ka [3]: 1.05 µM⁻¹ s⁻¹
- kc [3]: 82.5 s⁻¹ and 56 s⁻¹
- Kd [4]: 50 µM
- kc [4]: 545 s⁻¹
- Kd [5]: 760 µM
- ka [5, 10]: 50 µM⁻¹ s⁻¹
- kc [5, 10]: 460 s⁻¹
- ka [6, 11]: 10 µM⁻¹ s⁻¹
- kc [6, 11]: 95 s⁻¹
- ka [6, 12]: 10 µM⁻¹ s⁻¹
- kc [6, 12]: 154 s⁻¹
- kcat [7]: 933 ± 33 s⁻¹
- kcat [8]: 86 ± 2 s⁻¹
- Km ([8]; read-out: KM^app): 131 ± 2 µM
- ka [9]: 45 µM⁻¹ s⁻¹
- kc [9]: 830 s⁻¹ and 1040 s⁻¹
